Laboratory results: patent publication US7902195B2, “Pyridine [3,4-b] pyrazinones” (Pharmacia & Upjohn Company LLC, priority 2006, dated 2011)

Target: T1, PDE5 enzyme isolated from human platelets (Homo sapiens, UniProt O76074)
T1 construct: The PDE5 enzyme for use in the assay can be obtained from human platelets; from tissue; host or cells: human platelets
Experiment: Alternative human platelet PDE5 enzyme inhibition scintillation proximity assay (Method 2)
Type: biochemical
Conditions: cGMP substrate 50 nM, 60 minutes at room temperature
Excerpt: The IC50 of a test compound can be measured using an in vitro assay using PDE5 enzyme isolated from human platelets. The IC50 is the concentration of test compound required to inhibit the hydrolysis of cGMP to GMP by the PDE5 enzyme by 50% relative to the activity of uninhibited controls. The PDE5 enzyme for use in the assay can be obtained from human platelets by appropriate modification of the method of Thompson, W J et al.; Biochemistry 18(23), 5228-5237, 1979, as described by Ballard S A et al.; J. Urology 159(6), 2164-2171, 1998. The PDE5 enzyme so obtained can be used to catalyze the hydrolysis of [^3H]cGMP (Amersham Biosciences) to 5′ nucleotide [^3H]GMP. The [^3H]GMP binds to yttrium silicate SPA beads (Amersham Biosciences) and is detected by scintillation counting. More specifically, the effect of a test compound at different concentrations can be evaluated in the assay by contacting the compound with a fixed amount of PDE5 enzyme in the presence of substrate (cGMP […] in a 3:1 ratio unlabelled to [^3H]-labeled). Scintillation counting can be used as described above to determine relative PDE5 enzyme activity. The inhibition of PDE5 enzyme activity is then calculated relative to total PDE5 enzyme activity of uninhibited controls.
Method 2: Alternative Human Platelet PDE5 Enzyme Inhibition Scintillation Proximity Assay
PDE5 IC50 Assay: 96-Well Microtiter Plate Format
Buffer A: 20 mM Tris-HCl, 5 mM MgCl2, pH 7.4
Buffer B: 2 mg/ml BSA in Buffer A (enzyme buffer)
cGMP substrate: Final concentration of 50 nM in assay
The amount of ^3H-labeled substrate added depends upon the specific activity of [^3H]cGMP, and it is diluted in Buffer A.
PDE enzyme: Prepared in Buffer B. The dilution factor is determined by enzyme activity.
SPA beads: 4 mg/ml suspension prepared in dH2O.
Stocks of standard and test compound are prepared at 2 mM in 100% DMSO. The test compound is serially diluted in a dilution plate using an 8-point ⅕ log dilution format such that the starting concentration in the assay is 2 μM for an initial IC50 screen. 27 μl of Buffer A are added to the wells of the assay plates. From the dilution plate, 3 μl of diluted compound is delivered in duplicate or 3 μl of 100% DMSO (for positive and negative controls) are added. 30 μl of enzyme are added. For the negative control wells, Buffer B is substituted in place of the enzyme. 30 μl of labeled substrate are added to all wells.
After incubating for 60 minutes at room temperature, the reaction is stopped with the addition of 30 μl of the yttrium silicate beads. These beads are dense and require constant agitation while being added to the plate. The plates are sealed and shaken on a plate shaker for fifteen minutes to allow the beads to bind the GMP product.
After allowing the beads to settle for 30 minutes, plates are read on a NXT TopCount scintillation counter and the data are analyzed as follows. Percent inhibition values are calculated using the means of the 0% and 100% controls on each plate. The estimates of the 4-parameters of the logistic, sigmoid dose-response model are then calculated using the well-level percent inhibition value for the compound. The formula for the four-parameter logistic model may be expressed as Y=((a−d)/(1+(X/c)^b))+d, where Y is the response, X is the concentration, a is the lower asymptote (minimum response), d is the upper asymptote (maximum response), c is the model IC50 (in the same units as X), and b is the slope (as described in De Lean, A., P. J. Munson, and D. Rodbard (“Simultaneous analysis of families of sigmoidal curves: application to bioassay, radioligand assay, and physiological dose-response curves.” Am. J. Physiol. 235(2): E97-E102, 1978). These estimates are used to calculate the concentration that corresponds to 50% inhibition.
Compounds were tested in accordance with Method 2 above yielding the IC50 values described in Table C.

`CCCOCCn1c(=O)c(N2CCCC(C(N)=O)C2)nc2cnc(-c3ccc(OC)nc3)cc21` (stereo not drawn) [Example 40, 1-(1,2-dihydro-7-(6-methoxypyridin-3-yl)-2-oxo-1-(2-propoxyethyl)pyrido[3,4-b]pyrazin-3-yl)piperidine-3-carboxamide] gave an IC50 of 0.296 nM.
For `CCCOCCn1c(=O)c(N2CCC(C(N)=O)CC2)nc2cnc(-c3ccc(OC)nc3)cc21` [Example 41, 1-(1,2-dihydro-7-(6-methoxypyridin-3-yl)-2-oxo-1-(2-propoxyethyl)pyrido[3,4-b]pyrazin-3-yl)piperidine-4-carboxamide], the IC50 was 0.249 nM.
Work on `CCCOCCn1c(=O)c(N2CCC(O)C2)nc2cnc(-c3ccc(OC)nc3)cc21` (stereo not drawn) [Example 42, 3-(3-hydroxypyrrolidin-1-yl)-7-(6-methoxypyridin-3-yl)-1-(2-Propoxyethyl)pyrido[3,4-b]pyrazin-2(1H)-one] yielded an IC50 of 0.421 nM.
Work on `CCCOCCn1c(=O)c(N2CCN(CC(C)(C)O)CC2)nc2cnc(-c3ccc(OC)nc3)cc21` [Example 43, 3-(4-(2-hydroxy-2-methylpropyl)piperazin-1-yl)-7-(6-methoxypyridin-3-yl)-1-(2-propoxyethyl)pyrido[3,4-b]pyrazin-2(1H)-one] yielded an IC50 of 0.208 nM.
`CCCOCCn1c(=O)c(N2CCN([C@@H](C)[C@@H](C)O)CC2)nc2cnc(-c3ccc(OC)nc3)cc21` [Example 44, 3-(4-((2S,3R)-3-hydroxybutan-2-yl)piperazin-1-yl)-7-(6-methoxypyridin-3-yl)-1-(2-propoxyethyl)pyrido[3,4-b]pyrazin-2(1H)-one] gave an IC50 of 0.33 nM.
`CCCOCCn1c(=O)c(N2CCN([C@H](C)[C@@H](C)O)CC2)nc2cnc(-c3ccc(OC)nc3)cc21` [Example 45, 3-(4-((2R,3R)-3-hydroxybutan-2-yl)piperazin-1-yl)-7-(6-methoxypyridin-3-yl)-1-(2-propoxyethyl)pyrido[3,4-b]pyrazin-2(1H)-one] gave an IC50 of 0.295 nM.
With `CCCOCCn1c(=O)c(N2CCN(C[C@H](C)O)CC2)nc2cnc(-c3ccc(OC)nc3)cc21` [Example 46, 3-(4-((S)-2-hydroxypropyl)piperazin-1-yl)-7-(6-methoxypyridin-3-yl)-1-(2-propoxyethyl)pyrido[3,4-b]pyrazin-2(1H)-one] the IC50 was 0.306 nM.
In the case of `CCCOCCn1c(=O)c(N2CCN(C[C@@H](C)O)CC2)nc2cnc(-c3ccc(OC)nc3)cc21` [Example 47, 3-(4-((R)-2-hydroxypropyl)piperazin-1-yl)-7-(6-methoxypyridin-3-yl)-1-(2-propoxyethyl)pyrido[3,4-b]pyrazin-2(1H)-one], the IC50 is reported as 0.226 nM.
`CCCOCCn1c(=O)c(N2CCCN(CCCO)CC2)nc2cnc(-c3ccc(OC)nc3)cc21` [Example 48, 3-(4-(3-hydroxypropyl)-1,4-diazepan-1-yl)-7-(6-methoxypyridin-3-yl)-1-(2-propoxyethyl)pyrido[3,4-b]pyrazin-2(1H)-one] gave an IC50 of 1.07 nM.
